Test results reported in PubChem BioAssay AID330 (DTP/NCI, 2004).
Several values for one entry are separate records, joined by “and”; a condition that tells them apart may be missing. Identical values can stand only once. Inconclusive results and toxic doses are left out.

Test system: P388 leukemia ip, CD2F1 mice, survival T/C
Test: NCI In Vivo Anticancer Drug Screen. Data for tumor model P388 Leukemia (intraperitoneal) in CD2F1 (CDF1) mice
Settings: endpoint: median survival time, higher = longer survival
Outline: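 Mice carrying the transplanted tumor received test compound or vehicle. Survival was recorded in each group, and the value is the treated-group measurement divided by that of the vehicle-treated control group.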

[1] = dose: 100.0 mg/kg/injection, schedule: Q04DX002 (ip), vehicle: saline with Tween-80
[2] = dose: 200.0 mg/kg/injection, schedule: Q04DX002 (ip), vehicle: saline with Tween-80
[3] = dose: 400.0 mg/kg/injection, schedule: Q04DX002 (ip), vehicle: saline with Tween-80
[4] = dose: 50.0 mg/kg/injection, schedule: Q01DX009 (ip), vehicle: Klucel (hydroxypropylcellulose) (HPC)
[5] = dose: 100.0 mg/kg/injection, schedule: Q01DX009 (ip), vehicle: Klucel (hydroxypropylcellulose) (HPC)
[6] = dose: 50.0 mg/kg/injection, schedule: Q01DX005 (ip), vehicle: Klucel (hydroxypropylcellulose) (HPC)
[7] = dose: 100.0 mg/kg/injection, schedule: Q01DX005 (ip), vehicle: Klucel (hydroxypropylcellulose) (HPC)
[8] = dose: 200.0 mg/kg/injection, schedule: Q01DX005 (ip), vehicle: Klucel (hydroxypropylcellulose) (HPC)

SMILES: C/C=C/c1cnc2nc(N)nc(N)c2n1
- T/C [1]: 99 % of control
- T/C [2]: 104 % of control
- T/C [3]: 107 % of control

SMILES: COc1ccc2nc3cc(Cl)ccc3c(NCCCCCCNc3c4ccc(Cl)cc4nc4ccc(OC)nc34)c2n1
- T/C [4]: 93 % of control
- T/C [5]: 105 % of control

SMILES: Cn1c(=O)c2c(nnc(-c3ccc(Cl)c(Cl)c3)[n+]2[O-])n(C)c1=O
- T/C (dose: 25.0 mg/kg/injection, schedule: Q01DX001 (ip), vehicle: Klucel (hydroxypropylcellulose) (HPC)): 103 % of control

SMILES: COc1ccc(C2CC(c3cc(C)cc(Br)c3O)=NO2)cc1 (stereo unspecified)
- T/C [1]: 93 % of control
- T/C [2]: 88 % of control
- T/C [3]: 92 % of control

SMILES: CC(C)(CBr)COP1(=O)NCC(C)(C)CO1 (stereo unspecified)
- T/C [6]: 106 % of control
- T/C [7]: 105 % of control
- T/C [8]: 106 % of control

SMILES: O=C(O)CCNC(=O)CCCO
- T/C (dose: 50.0 mg/kg/injection, schedule: Q01DX005 (ip), vehicle: saline): 100 % of control
- T/C (dose: 100.0 mg/kg/injection, schedule: Q01DX005 (ip), vehicle: saline): 104 % of control
- T/C (dose: 200.0 mg/kg/injection, schedule: Q01DX005 (ip), vehicle: saline): 104 % of control

SMILES: OCCN1CCN(C2=Nc3cccnc3Nc3cscc32)CC1
- T/C (dose: 60.0 mg/kg/injection, schedule: Q01DX005 (ip), vehicle: saline with Tween-80): 101 % of control
- T/C (dose: 120.0 mg/kg/injection, schedule: Q01DX005 (ip), vehicle: saline with Tween-80): 111 % of control
- T/C (dose: 240.0 mg/kg/injection, schedule: Q01DX005 (ip), vehicle: saline with Tween-80): 96 % of control

SMILES: N#CC(=Nc1ccc(F)cc1F)C1=C(O)c2ccccc2C1=O
- T/C (dose: 12.5 mg/kg/injection, schedule: Q01DX005 (ip), vehicle: saline with Tween-80): 97 % of control
- T/C (dose: 25.0 mg/kg/injection, schedule: Q01DX005 (ip), vehicle: saline with Tween-80): 105 % of control
- T/C (dose: 50.0 mg/kg/injection, schedule: Q01DX005 (ip), vehicle: saline with Tween-80): 100 % of control

SMILES: COc1ccc(-c2cnnn2Cc2ccco2)cc1
- T/C (dose: 100.0 mg/kg/injection, schedule: Q04DX002 (ip), vehicle: Klucel (hydroxypropylcellulose) (HPC)): 105 % of control
- T/C (dose: 200.0 mg/kg/injection, schedule: Q04DX002 (ip), vehicle: Klucel (hydroxypropylcellulose) (HPC)): 100 % of control
- T/C (dose: 400.0 mg/kg/injection, schedule: Q04DX002 (ip), vehicle: Klucel (hydroxypropylcellulose) (HPC)): 102 % of control

SMILES: CNC(=O)OCc1c(COC(=O)NC)c(C)n(-c2ccc(Br)cc2)c1C
- T/C (dose: 12.5 mg/kg/injection, schedule: Q01DX009 (ip), vehicle: saline): 152 % of control and 154 % of control
- T/C (dose: 25.0 mg/kg/injection, schedule: Q01DX009 (ip), vehicle: saline): 157 % of control
- T/C (dose: 50.0 mg/kg/injection, schedule: Q01DX009 (ip), vehicle: saline): 89 % of control

SMILES: O=C1c2ccccc2C(=O)C1c1ccc2c(ccc3ccccc32)n1
- T/C [6]: 98 % of control
- T/C [7]: 88 % of control
- T/C [8]: 96 % of control

SMILES: C=C[Si]12OCCN(CCO1)CCO2
- T/C (dose: 12.5 mg/kg/injection, schedule: Q01DX009 (ip), vehicle: Klucel (hydroxypropylcellulose) (HPC)): 119 % of control
- T/C (dose: 25.0 mg/kg/injection, schedule: Q01DX009 (ip), vehicle: Klucel (hydroxypropylcellulose) (HPC)): 112 % of control
- T/C [4]: 114 % of control
- T/C [5]: 109 % of control and 98 % of control
- T/C (dose: 200.0 mg/kg/injection, schedule: Q01DX009 (ip), vehicle: Klucel (hydroxypropylcellulose) (HPC)): 102 % of control
- T/C (dose: 400.0 mg/kg/injection, schedule: Q01DX009 (ip), vehicle: Klucel (hydroxypropylcellulose) (HPC)): 100 % of control

SMILES: [CH3][Sn]([CH3])([S]P(=S)(c1ccccc1)c1ccccc1)[S]P(=S)(c1ccccc1)c1ccccc1
- T/C [6]: 118 % of control
- T/C [7]: 117 % of control

SMILES: CC(C)CC1=C(C(=O)c2ccoc2)CC(C)C1 (stereo unspecified)
- T/C (dose: 3.7 mg/kg/injection, schedule: Q01DX005 (ip), vehicle: Klucel (hydroxypropylcellulose) (HPC)): 99 % of control
- T/C (dose: 7.5 mg/kg/injection, schedule: Q01DX005 (ip), vehicle: Klucel (hydroxypropylcellulose) (HPC)): 95 % of control
- T/C (dose: 15.0 mg/kg/injection, schedule: Q01DX005 (ip), vehicle: Klucel (hydroxypropylcellulose) (HPC)): 95 % of control
